US11963946B2, “MDMA treatment to enhance acute emotional effects profile of LSD, psilocybin, or other psychedelics” (Universitätsspital Basel, priority 2020, dated 2024)
Where “and” joins values, the source holds several entries; their conditions need not be identical. Identical values can stand only once. Like-named read-outs stand apart in the source and are kept apart here.

Assays:
healthy human subjects [1] = test: Subjective effects Visual Analog Scales (VAS), LSD-MDMA clinical study; settings: for peak subjective effects ratings of any drug effect (VAS): oral, mean of two healthy subjects; for bad drug effects (VAS): FIG. 3A; for ratings of being talkative (VAS): FIG. 8A; for wanting to be alone / with other people (VAS): FIGS. 10A and 10B
healthy human subjects [2] = test: Adverse effects, list of complaints (LC) score, LSD-MDMA clinical study; settings: 0.1 mg LSD, 100 mg MDMA or both; mean of two subjects; placebo 5
healthy humans = settings: cited from earlier work
5-HT transporter (SERT) = 5-HT transporter (SERT) (Homo sapiens, UniProt P31645); settings: Rickli et al., 2016; cited from earlier work
healthy human subjects [3] = settings: two subjects; FIGS. 12, 13
D1-3 receptors = settings: Rickli et al., 2016; cited from earlier work
5-HT2A receptor = 5-HT2A receptor (Homo sapiens, UniProt P28223); settings: Rickli et al., 2016; cited from earlier work
[4] = test system: serotonin 5-HT1 receptors; settings: Rickli et al., 2016; cited from earlier work
humans = settings: cited from earlier work
D2 receptors = D2 receptors (Homo sapiens, UniProt P14416); settings: cited from earlier work
[5] = 0.1 mg LSD, 100 mg MDMA or both, FIG. 2A
[6] = 0.1 mg LSD, 100 mg MDMA or both, two subjects
[7] = oral administration (Vizeli et al., 2017)

5-HT transporter (SERT), sequence (P31645 whole entry, species assumed): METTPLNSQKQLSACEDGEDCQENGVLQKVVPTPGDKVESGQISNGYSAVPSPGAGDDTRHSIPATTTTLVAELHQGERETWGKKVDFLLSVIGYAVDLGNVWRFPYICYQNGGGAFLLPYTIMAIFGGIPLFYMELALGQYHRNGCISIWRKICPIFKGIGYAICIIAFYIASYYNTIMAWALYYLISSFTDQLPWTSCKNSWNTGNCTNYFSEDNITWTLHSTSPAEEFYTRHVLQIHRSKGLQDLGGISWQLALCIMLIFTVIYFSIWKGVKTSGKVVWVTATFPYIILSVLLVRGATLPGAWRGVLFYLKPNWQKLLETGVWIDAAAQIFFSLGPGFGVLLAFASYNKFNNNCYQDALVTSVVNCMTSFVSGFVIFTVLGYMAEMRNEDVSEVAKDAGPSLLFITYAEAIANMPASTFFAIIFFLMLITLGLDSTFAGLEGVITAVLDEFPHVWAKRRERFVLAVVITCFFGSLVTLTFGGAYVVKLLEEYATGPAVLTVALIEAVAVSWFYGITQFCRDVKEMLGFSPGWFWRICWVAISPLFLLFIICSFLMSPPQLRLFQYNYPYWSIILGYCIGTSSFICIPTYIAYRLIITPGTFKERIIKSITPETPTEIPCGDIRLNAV
5-HT2A receptor, sequence (P28223 whole entry): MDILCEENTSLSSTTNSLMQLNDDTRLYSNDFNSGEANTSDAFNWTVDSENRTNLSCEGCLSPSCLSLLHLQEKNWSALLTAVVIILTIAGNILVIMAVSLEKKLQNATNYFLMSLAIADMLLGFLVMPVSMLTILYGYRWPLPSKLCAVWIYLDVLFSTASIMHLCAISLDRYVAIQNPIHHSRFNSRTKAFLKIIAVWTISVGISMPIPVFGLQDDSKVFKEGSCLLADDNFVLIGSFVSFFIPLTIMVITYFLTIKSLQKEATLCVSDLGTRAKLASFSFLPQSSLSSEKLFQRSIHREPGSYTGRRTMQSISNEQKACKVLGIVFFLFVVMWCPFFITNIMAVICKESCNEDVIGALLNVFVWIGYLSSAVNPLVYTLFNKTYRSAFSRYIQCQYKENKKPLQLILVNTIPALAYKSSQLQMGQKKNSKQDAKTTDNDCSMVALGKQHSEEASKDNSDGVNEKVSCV
D2 receptors, sequence (P14416 whole entry): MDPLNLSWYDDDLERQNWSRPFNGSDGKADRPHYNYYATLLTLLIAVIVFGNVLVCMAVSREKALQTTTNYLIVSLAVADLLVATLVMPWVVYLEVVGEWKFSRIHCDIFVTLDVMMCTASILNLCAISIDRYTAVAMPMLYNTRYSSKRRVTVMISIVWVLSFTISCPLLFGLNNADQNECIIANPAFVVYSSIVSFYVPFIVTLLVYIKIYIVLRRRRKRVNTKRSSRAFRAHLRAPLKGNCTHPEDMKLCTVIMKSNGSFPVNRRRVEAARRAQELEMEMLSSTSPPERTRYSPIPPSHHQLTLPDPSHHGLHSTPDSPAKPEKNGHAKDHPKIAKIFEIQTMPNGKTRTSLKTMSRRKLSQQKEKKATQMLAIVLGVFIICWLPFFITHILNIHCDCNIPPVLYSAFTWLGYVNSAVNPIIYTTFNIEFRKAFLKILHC

## CCN(CC)C(=O)[C@@H]1C=C2c3cccc4[nH]cc(c34)C[C@H]2N(C)C1 [LSD, lysergic acid diethylamide]
Healthy human subjects [1]; [5]
  peak subjective effects ratings of any drug effect (VAS): comparable peak subjective effects ratings
Healthy human subjects [1]; 0.1 mg LSD, 100 mg MDMA or both, two subjects, FIG. 2A
  duration of any drug effect (VAS): lasted longer than those of MDMA
Healthy human subjects [1]; 0.1 mg LSD, 100 mg MDMA or both, two subjects, FIG. 2B
  good drug effects duration (VAS): lasted longer
Healthy human subjects [1]; [6]
  bad drug effects (VAS): minor subjective bad drug effects
Healthy human subjects [1]; 0.1 mg LSD, 100 mg MDMA or both, two subjects, FIG. 3B
  anxiety (VAS): moderate anxiety at drug effect onset
Healthy human subjects [1]; 0.1 mg LSD, two subjects, FIG. 4B
  nausea (VAS): moderate nausea at drug effect onset
Healthy human subjects [1]; two subjects
  ratings of openness (VAS): lower increases in openness
  ratings of being talkative (VAS): reduces talkative
  wanting to be alone / with other people (VAS): wanted to be with others and not alone
Healthy human subjects [1]; two subjects, FIG. 5A
  changes in visual perception (VAS): comparable changes in visual perception
Healthy human subjects [1]; two subjects, FIG. 5B
  synaesthesias (sounds influencing visual perception) (VAS): comparable changes
Healthy human subjects [1]; two subjects, FIG. 6A
  changes in the perception of time (VAS): comparable changes in the perception of time
Healthy human subjects [1]; two subjects, FIG. 11
  degree of intro or extroversion (VAS): no effect
Healthy human subjects [2]
  Total average LC scores: 18
Healthy humans; 0.1 mg LSD (Holze et al., 2019a), range 0.3-1.0
  time of onset of the subjective response, any drug effect VAS (mean±SD): 0.7 ± 0.2 h
Healthy humans; 0.1 mg LSD (Holze et al., 2019a), range 5.3-12.8
  duration of subjective effects (mean±SD): 8.5 ± 2.0 h
Healthy humans; 0.1 mg LSD (Holze et al., 2019a), range 6.0-13.2
  time of offset of the subjective response, any drug effect VAS (mean±SD): 9.1 ± 2.0 h
Healthy humans; 0.1 mg LSD, 3 of 24 subjects (Dolder et al., 2017)
  subjects with bad drug effects (50% or more on a 0-100% scale at any time point): 12.5%
Healthy humans; 0.1 mg LSD, 7 of 24 subjects (Holze et al., 2019a)
  subjects with transient bad drug effects: 29%
Healthy humans; 0.1 mg dose (Dolder et al., 2017), range 5-14
  duration of LSD effects: 8.2 ± 2.1 h
Healthy humans; 0.2 mg LSD, 9 of 16 subjects (Dolder et al., 2017)
  subjects with bad drug effects (50% or more on a 0-100% scale at any time point): 56%
Healthy humans; 0.2 mg LSD, sixteen healthy humans (Schmid et al., 2015)
  subjects with marked anxiety: two
Healthy humans; 0.2 mg dose (Dolder et al., 2017), range 7-19.5
  duration of LSD effects: 11.6 ± 1.7 h
Healthy humans; LSD 0.1 mg vs MDMA 125 mg (Holze et al., 2019b)
  subjective response to LSD compared to MDMA: clearly more pronounced
Healthy humans; LSD (Holze et al., 2019a), range 1.6-4.3
  time to the subjective peak effect: 2.5 ± 0.6 h and 2.5 h
Healthy humans; oral administration
  start of LSD effect, on average: 42 min
Healthy humans; oral dosing formulation of LSD
  time after administration at which anxiety mostly occurs (peak effects): 1 to 4 h
5-HT transporter (SERT)
  interaction with the SERT: does not interact with the SERT
Healthy human subjects [3]
  alterations of consciousness on the 5D-ASC main and subscales: comparable degrees of alterations of consciousness
D1-3 receptors
  stimulation of D1-3 receptors: stimulates D1-3 receptors
5-HT2A receptor
  stimulation of the 5-HT2A receptor: potently stimulates
[4]
  agonist potency at serotonin 5-HT1 receptors: potent agonists

## CNC(C)Cc1ccc2c(c1)OCO2 (stereo not shown) [MDMA, 3,4-methylenedioxymethamphetamine]
humans; MDMA (Vizeli et al., 2017)
  duration of the subjective effect: 4.2 ± 1.3 h
humans; [7]
  onset of the MDMA effect (mean±SD): 33 ± 24 min and 33 min
  time to peak effect after MDMA administration: 1.6 ± 0.8 h and 1.6 h
Healthy human subjects [1]; [5]
  peak subjective effects ratings of any drug effect (VAS): comparable peak subjective effects ratings
Healthy human subjects [1]; [6]
  bad drug effects (VAS): moderately increased subjective bad drug effect ratings
Healthy human subjects [1]; two subjects
  ratings of openness (VAS): increases ratings of openness
  ratings of being talkative (VAS): increases ratings of being talkative
  wanting to be alone / with other people (VAS): wanted to be with others and not alone
Healthy human subjects [1]; two subjects, FIG. 9A
  ratings of trust (VAS): increases feelings of trust
Healthy human subjects [2]
  Total average LC scores: 12

## COc1cc(CCN)cc(OC)c1OC [mescaline]
D2 receptors
  affinity for D2 receptors: no affinity
[4]
  agonist potency at serotonin 5-HT1 receptors: low potency

## CN(C)CCc1c[nH]c2cccc(O)c12 [psilocin]
5-HT transporter (SERT)
  interaction with the SERT: inhibits the 5-HT transporter
[4]
  agonist potency at serotonin 5-HT1 receptors: potent agonists
